Test results taken from patent publication US20260271929A1, “FUNGICIDAL COMBINATIONS, MIXTURES AND COMPOSITIONS AND USES THEREOF” (ADAMA MAKHTESHIM LTD., priority 2023, published 2026).
Where two headings read alike, the source gives them in different places. Blank lines part the entries; values can stand above or below the compound they belong to.

Test system: Rhizoctonia solani
Experiment: Microtiter plate (MTP) fungal growth inhibition assay, OD at 590 nm after 5 days; interaction by Wadley approach
Assay type: cell-based
Conditions: for EC50: Rhizoctonia solani
Experimental: In the […] method, synergistic activity is determined from dose response curves. With this method, the efficacy of the active ingredient (“a.i.”) is determined by comparing the degree of fungal attack on treated plants with that on untreated, similarly inoculated and incubated check plants. Each a.i. is generally tested at multiple. (e.g., 6) 25 concentrations, and dose response curves are generated. The dose response curves are used to establish the EC50 (i.e., the effective concentration of a.i. providing 50% disease control) of the individual compounds as well as of the combinations (EC50Observed) The experimentally found values of the mixture at a given weight ratio are compared with the values that would have been found were only a complementary efficacy of the components was present as follows: 5 [formula] • A and B=the single products tested • a and b=the ratio of each product in the mixture • ECA and ECB=observed effective concentration of the single products A and B at different control levels (50 or 90%) 10 The ratio EC50 (A+B)Theo/EC50(A+B)observed expresses the factor of interaction level (R) which may be interpreted in accordance with the following Table: [table] The compound of Formula I, […] and Pyridachlometyl were tested straight or in mixture on the Rhizoctonia solani pathogen. the active ingredients straight or in mixture were diluted in a suitable solvent to a set of concentrations. Two fungicide ratios were tested for each combination between the compound of Formula I and Chloroinconazide or Pyridachlometyl. One hundred microliters of sterile distilled water with or without fungicide were added to 100 μl of pathogen suspension into each well in a microtiter plate (MTP). Each bioassay was carried out with the following 8 treatment groups corresponding to 8 concentrations of the fungicide mixture. In the MTP assay, 3 replicates (wells) were carried out for each concentration of fungicide mixture. The MTPs were incubated in the dark at 19° C. for 5 days under saturated humidity in order to avoid evaporation. Then, the fungal growth in each well was estimated by measuring the Optical Density (OD) at 590 nm with a BMG plate reader (FLUOstar Omega, BMG Labtech). The OD values at 5 days were automatically corrected by comparison with those measured at day zero (inoculation day). The generated data were transferred to the MARS Data Analysis software (BMG Labtech) which allows to calculate percentage of growth inhibition induced by each concentration of fungicide tested. Finally, the EC50 of each product and mixture was determined. • (i) No bacterial nor fungal contamination at any stage of the assay must be observed. • (ii) A normal and constant mycelium growth must be observed in the control wells (without fungicide). • (iii) At the end of the evaluation the final minimum OD must reach at least a value of 0.25 Absorbance's Unit (AU).

[1] = MTP, 5 days at 19° C., OD 590 nm
[2] = Table 9, active ingredient straight

EC50 [1]: 15.399 µg/mL | EC50 observed [2]: 15.3990 µg/mL
Structure (SMILES): CC1N[C@H](C(=O)N/N=C/c2ccc(Cl)cc2)Cc2c1[nH]c1ccccc21 (stereo partly drawn) [Chloroinconazide]
percentage of growth inhibition (Dose 0.110): 14.4% | percentage of growth inhibition (Dose 0.329): 2.0% | percentage of growth inhibition (Dose 0.988): 24.1% | percentage of growth inhibition (Dose 2.96): 9.1% | percentage of growth inhibition (Dose 8.89): 19.5% | percentage of growth inhibition (Dose 26.7): 99.3% | percentage of growth inhibition (Dose 80): 100.1%

EC50 (120 h, MTP, 5 days at 19° C., OD 590 nm, read-out: EC50): > 320 µg/mL | EC50 (Table 9, active ingredient straight, read-out: EC50 observed): ≥ 320 µg/mL
Structure (SMILES): Cc1ccc(S(=O)(=O)n2cc(F)c(=N)n(C)c2=O)cc1 [Compound (I), 5-fluoro-4-imino-3-methyl-1-tosyl-3,4-dihydropyrimidin-2(1H)-one]
percentage of growth inhibition (Dose 0.020): 15.8% | percentage of growth inhibition (Dose 0.102): 23.9% | percentage of growth inhibition (Dose 0.512): 22.5% | percentage of growth inhibition (Dose 2.56): 0.7% | percentage of growth inhibition (Dose 12.8): 13.5% | percentage of growth inhibition (Dose 64): 27.7% | percentage of growth inhibition (Dose 320): 40.1%

EC50 [1]: 0.111 µg/mL | EC50 observed [2]: 0.1115 µg/mL
Structure (SMILES): Cc1nnc(Cl)c(-c2c(F)cccc2F)c1-c1ccccc1 [Pyridachlometyl]
percentage of growth inhibition (Dose 0.00781): −1.1% | percentage of growth inhibition (Dose 0.01563): 2.6% | percentage of growth inhibition (Dose 0.03125): 3.7% | percentage of growth inhibition (Dose 0.06250): 12.7% | percentage of growth inhibition (Dose 0.12500): 68.7% | percentage of growth inhibition (Dose 0.2500): 76.0% | percentage of growth inhibition (Dose 0.500): 77.2%
